According to patent US9902702B2, “Spirocycloheptanes as inhibitors of rock” (BRISTOL-MYERS SQUIBB COMPANY, priority 2014, dated 2018):

molecular target: ROCK2 (Homo sapiens, UniProt O75116); test: ROCK assay: phosphorylation of FITC peptide substrate, LABCHIP 3000 mobility shift; assay type: biochemical; details: 5 μM ATP, 1.5 μM peptide substrate; read-out: ROCK2 Activity (ROCK IC50 range)
Outline: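 Rho kinase variant phosphorylates 1.5 μM FITC-AHA-AKRRRLSSLRA-OH with 5 μM ATP in 20 mM HEPES pH 7.5, 20 mM MgCl2, 0.015% Brij-35, 4 mM DTT, DMSO <2%. EDTA stops the reaction, and phospho and non-phospho peptides are resolved by LabChip 3000 mobility shift. IC50 from dose-response curve fit.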

Sequence of ROCK2 (O75116 whole entry, species assumed): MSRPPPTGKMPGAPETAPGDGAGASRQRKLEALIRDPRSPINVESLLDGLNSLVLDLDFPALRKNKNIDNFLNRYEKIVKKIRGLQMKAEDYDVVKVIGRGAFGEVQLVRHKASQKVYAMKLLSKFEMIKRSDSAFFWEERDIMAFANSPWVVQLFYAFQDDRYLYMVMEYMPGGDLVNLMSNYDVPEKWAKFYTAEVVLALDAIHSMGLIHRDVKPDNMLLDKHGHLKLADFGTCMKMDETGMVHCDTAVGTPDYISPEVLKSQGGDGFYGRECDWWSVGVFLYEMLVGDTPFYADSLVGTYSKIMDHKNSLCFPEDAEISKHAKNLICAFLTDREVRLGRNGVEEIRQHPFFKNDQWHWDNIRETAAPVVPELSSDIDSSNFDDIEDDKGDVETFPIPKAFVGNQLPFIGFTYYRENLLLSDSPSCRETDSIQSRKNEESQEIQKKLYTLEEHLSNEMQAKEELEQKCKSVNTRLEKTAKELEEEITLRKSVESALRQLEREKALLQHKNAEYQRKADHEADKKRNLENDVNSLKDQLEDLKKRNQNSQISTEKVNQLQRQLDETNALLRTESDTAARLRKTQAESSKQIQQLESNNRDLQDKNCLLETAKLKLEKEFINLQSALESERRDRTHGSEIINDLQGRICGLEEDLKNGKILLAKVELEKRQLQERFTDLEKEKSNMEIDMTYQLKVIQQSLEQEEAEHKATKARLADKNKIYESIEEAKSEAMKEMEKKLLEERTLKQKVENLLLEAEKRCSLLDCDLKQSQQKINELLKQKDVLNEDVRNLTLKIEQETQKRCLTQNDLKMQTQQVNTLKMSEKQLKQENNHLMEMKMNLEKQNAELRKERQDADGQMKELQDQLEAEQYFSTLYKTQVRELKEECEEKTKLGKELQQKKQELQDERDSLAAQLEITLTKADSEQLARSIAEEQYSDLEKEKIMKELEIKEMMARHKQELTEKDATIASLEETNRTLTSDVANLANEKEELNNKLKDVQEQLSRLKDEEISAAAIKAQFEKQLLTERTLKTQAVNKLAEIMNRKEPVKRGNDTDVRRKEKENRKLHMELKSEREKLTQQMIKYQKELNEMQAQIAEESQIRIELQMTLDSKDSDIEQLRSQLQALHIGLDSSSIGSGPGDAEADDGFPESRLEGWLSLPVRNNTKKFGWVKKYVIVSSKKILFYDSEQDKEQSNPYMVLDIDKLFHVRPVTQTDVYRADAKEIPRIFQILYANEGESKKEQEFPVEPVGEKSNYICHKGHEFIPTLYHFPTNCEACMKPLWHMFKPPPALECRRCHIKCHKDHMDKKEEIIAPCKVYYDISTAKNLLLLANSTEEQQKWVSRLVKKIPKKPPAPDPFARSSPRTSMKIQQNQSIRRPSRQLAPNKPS

| IC50 [nM] | SMILES |
| --- | --- |
| 0.2 to 2 | [H][C@]1(c2n[nH]c(=O)c3ccccc32)C[C@]2(C[C@@H](NC(=O)c3cnc4cc(N5CCC(F)(F)CC5)ccn34)C2)C1 (stereo partly drawn) [Example 391, 7-(4,4-difluoropiperidin-1-yl)-N-((aR)-6-(4-oxo-3,4-dihydrophthalazin-1-yl)spiro[3.3]heptan-2-yl)imidazo[1,2-a]pyridine-3 carboxamide] |
| 15.1 to 100 | O=C(NC1CC2(C1)CC(c1n[nH]c(=O)c3ccccc13)C2)N1Cc2cccnc2C1 (centres unmarked) [Example 257] |
| 100 to 2100 | O=C(CCc1ccccc1)NC1CC2(C1)CC(c1n[nH]c(=O)c3ccccc13)C2 (centres unmarked) [Example 6, N-[6-(4-oxo-3,4-dihydrophthalazin-1-yl)spiro[3.3]heptan-2-yl]-3-phenylpropanamide] |
| 0.2 to 2 | O=C(NC1CC2(C1)CC(c1n[nH]c(=O)c3ccccc13)C2)c1cnn2cc(C3CC3)ccc12 (stereo not drawn) [Example 166, 6-cyclopropyl-N-((αR)-6-(4-oxo-3,4-dihydrophthalazin-1-yl)spiro[3.3]heptan-2-yl)pyrazolo[1,5-α]pyridine-3-carboxamide] |
| 0.2 to 2 | [H][C@]1(c2n[nH]c(=O)c3ccccc32)C[C@]2(C[C@@H](NC(=O)c3cnc4c(C)cc(F)cn34)C2)C1 (stereo partly drawn) [Example 405, 6-fluoro-8-methyl-N-((aR)-6-(4-oxo-3,4-dihydrophthalazin-1-yl)spiro[3.3]heptan-2-yl)imidazo[1,2-a]pyridine-3-carboxamide] |
| 0.2 to 2 | [H][C@]1(c2n[nH]c(=O)c3ccccc32)C[C@]2(C[C@@H](NC(=O)c3cc4ccc(F)c(C)c4[nH]3)C2)C1 (stereo partly drawn) [Example 329, 6-fluoro-7-methyl-N-((aR)-6-(4-oxo-3,4-dihydrophthalazin-1-yl)spiro[3.3]heptan-2-yl)-1H-indole-2-carboxamide] |
| 2.01 to 5 | O=C(NC1CC2(C1)CC(c1n[nH]c(=O)c3ccccc13)C2)c1cnn2cc(COCC3CCOCC3)ccc12 [Example 211, N-((aR)-6-(4-oxo-3,4-dihydrophthalazin-1-yl)spiro[3.3]heptan-2-yl)-6-(((tetrahydro-2H-pyran-4-yl)methoxy)methyl)pyrazolo[1,5-a]pyridine-3-carboxamide] |
| 15.1 to 100 | [H][C@]1(c2n[nH]c(=O)c3ccccc32)C[C@]2(C[C@@H](NC(=O)c3ccc4[nH]c(C)nc4c3)C2)C1 (stereo partly drawn) [Example 309, 2-methyl-N-((aR)-6-(4-oxo-3,4-dihydrophthalazin-1-yl)spiro[3.3]heptan-2-yl)-1H-benzo[d] imidazole-5-carboxamide] |
| 2.01 to 5 | [H][C@]1(c2n[nH]c(=O)c3ccccc32)C[C@]2(C[C@@H](NC(=O)c3cnc4cc(OCCN5CCCC5)ccn34)C2)C1 (stereo partly drawn) [Example 401, N-((aR)-6-(4-oxo-3,4-dihydrophthalazin-1-yl)spiro[3.3]heptan-2-yl)-7-(2-(pyrrolidin-1-yl)ethoxy)imidazo[1,2-a]pyridine-3-carboxamide] |
| 5.1 to 15 | Cc1nc(N2CCC(F)C2)sc1C(=O)NC1CC2(C1)CC(c1n[nH]c(=O)c3ccccc13)C2 [Example 37, 2-[(3R)-3-fluoropyrrolidin-1-yl]-4-methyl-N-[(aR)-6-(4-oxo-3,4-dihydrophthalazin-1-yl)spiro[3.3]heptan-2-yl]-1,3-thiazole-5-carboxamide] |
| 5.1 to 15 | [2H]C([2H])([2H])n1cc(-c2ccc3c(c2)CN(C(=O)NC2CC4(C2)CC(c2n[nH]c(=O)c5ccccc25)C4)C3)cn1 [Example 253, 5-(1-(^2H3)methyl-1H-pyrazol-4-yl)-N-((aR)-6-(4-oxo-3,4-dihydrophthalazin-1-yl)spiro[3.3]heptan-2-yl)isoindoline-2-carboxamide] |
| 2.01 to 5 | CC(C)(O)Cn1nc(C(=O)NC2CC3(C2)CC(c2n[nH]c(=O)c4ccccc24)C3)c2cc(F)ccc21 [Example 65, 5-fluoro-1-(2-hydroxy-2-methylpropyl)-N-((aR)-6-(4-oxo-3,4-dihydrophthalazin-1-yl)spiro[3.3]heptan-2-yl)-1H-indazole-3-carboxamide] |
| 0.2 to 2 | [2H]C([2H])([2H])n1cc(-c2ccc3c(C(=O)NC4CC5(C4)CC(c4n[nH]c(=O)c6ccccc46)C5)cnn3c2)cn1 (centres unmarked) [Example 219] |
| 15.1 to 100 | [H][C@]1(c2n[nH]c(=O)c3ccccc32)C[C@]2(C[C@@H](NC(=O)c3cnn4cccc(Br)c34)C2)C1 (stereo partly drawn) [Example 304, 4-bromo-N-((aR)-6-(4-oxo-3,4-dihydrophthalazin-1-yl)spiro[3.3]heptan-2-yl)pyrazolo[1,5-a]pyridine-3-carboxamide] |
| 2.01 to 5 | [H][C@]1(c2n[nH]c(=O)c3ccccc32)C[C@]2(C[C@@H](NC(=O)c3cc4cc(F)cc(S(C)(=O)=O)c4[nH]3)C2)C1 (stereo partly drawn) [Example 335, 5-fluoro-7-(methylsulfonyl)-N-((aR)-6-(4-oxo-3,4-dihydrophthalazin-1-yl)spiro[3.3]heptan-2-yl)-1H-indole-2-carboxamide] |
| 2.01 to 5 | [H][C@]1(c2n[nH]c(=O)c3ccccc32)C[C@]2(C[C@@H](NC(=O)c3cc4cccc(O)c4[nH]3)C2)C1 (stereo partly drawn) [Example 327, 7-hydroxy-N-((aR)-6-(4-oxo-3,4-dihydrophthalazin-1-yl)spiro[3.3]heptan-2-yl)-1H-indole-2-carboxamide] |
| 0.2 to 2 | [H][C@]1(c2n[nH]c(=O)c3ccccc32)C[C@]2(C[C@@H](NC(=O)c3cc4c(Cl)ccc(C)c4[nH]3)C2)C1 (stereo partly drawn) [Example 302, 4-chloro-7-methyl-N-((aR)-6-(4-oxo-3,4-dihydrophthalazin-1-yl)spiro[3.3]heptan-2-yl)-1H-indole-2-carboxamide] |
| 0.2 to 2 | CN1CCN(c2ccc3c(C(=O)NC4CC5(C4)CC(c4n[nH]c(=O)c6ccccc46)C5)cnn3c2)CC1 [Example 86, 6-(4-methylpiperazin-1-yl)-N-((aR)-6-(4-oxo-3,4-dihydrophthalazin-1-yl)spiro[3.3]heptan-2-yl)pyrazolo[1,5-a]pyridine-3-carboxamide] |
| 5.1 to 15 | O=C(NC1CC2(C1)CC(c1n[nH]c(=O)c3ccccc13)C2)N1CCc2cc(CCC(F)(F)F)ccc21 [Example 245, N-((aR)-6-(4-oxo-3,4-dihydrophthalazin-1-yl)spiro[3.3]heptan-2-yl)-5-(3,3,3-trifluoropropyl)indoline-1-carboxamide] |
| 2.01 to 5 | [H][C@]1(c2n[nH]c(=O)c3ccccc32)C[C@]2(C[C@@H](NC(=O)c3cnc4cc(C)ccn34)C2)C1 (stereo partly drawn) [Example 412, 7-methyl-N-((aR)-6-(4-oxo-3,4-dihydrophthalazin-1-yl)spiro[3.3]heptan-2-yl)imidazo[1,2-a]pyridine-3-carboxamide] |
| 15.1 to 100 | COCC(O)COc1ccn2ncc(C(=O)NC3CC4(C3)CC(c3n[nH]c(=O)c5ccccc35)C4)c2c1 [Example 75, 5-(2-hydroxy-3-methoxypropoxy)-N-((aR)-6-(4-oxo-3,4-dihydrophthalazin-1-yl)spiro[3.3]heptan-2-yl)pyrazolo[1,5-a]pyridine-3-carboxamide] |
| 0.2 to 2 | [H][C@]1(c2n[nH]c(=O)c3ccccc32)C[C@]2(C[C@@H](NC(=O)c3ccc(-c4cn[nH]c4)c(OC)c3)C2)C1 (stereo partly drawn) [Example 416, 3-methoxy-N-((aR)-6-(4-oxo-3,4-dihydrophthalazin-1-yl)spiro[3.3]heptan-2-yl)-4-(1H-pyrazol-4-yl)benzamide] |
| 0.2 to 2 | O=C(NC1CC2(C1)CC(c1n[nH]c(=O)c3ccccc13)C2)c1cnn2cc(OCCC(F)(F)F)ccc12 (stereo not drawn) [Example 133, N-((αR)-6-(4-oxo-3,4-dihydrophthalazin-1-yl)spiro[3.3]heptan-2-yl)-6-(3,3,3-trifluoropropoxy)pyrazolo[1,5-α]pyridine-3-carboxamide] |
